Results reported in ChEMBL document CHEMBL1142005, “Utilization of a nitrobenzoxadiazole (NBD) fluorophore in the design of a Grb2 SH2 domain-binding peptide mimetic” (Bioorg Med Chem Lett, 2005).

Key:
[1] = target: T1, Growth factor receptor-bound protein 2 (Homo sapiens, UniProt P62993); assay: First order rate constant (koff) for human growth factor receptor bound protein 2
Target sequence in this assay (P62993 whole entry, looked up): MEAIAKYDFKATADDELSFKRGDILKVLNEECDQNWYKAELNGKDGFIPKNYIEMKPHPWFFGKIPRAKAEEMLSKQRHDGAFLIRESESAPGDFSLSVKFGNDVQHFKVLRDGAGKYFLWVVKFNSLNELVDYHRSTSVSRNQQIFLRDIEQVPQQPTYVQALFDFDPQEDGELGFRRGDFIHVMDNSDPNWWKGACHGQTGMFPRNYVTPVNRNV

[2] = target: T1, Growth factor receptor-bound protein 2; assay: Apparent dissociation constant for human growth factor receptor bound protein 2
Target sequence in this assay (P62993 whole entry): as the sequence (P62993 whole entry, looked up) above

[3] = target: T1, Growth factor receptor-bound protein 2; assay: First order rate constant (kon) for human growth factor receptor bound protein 2
Target sequence in this assay (P62993 whole entry, looked up): as above

[4] = target: T1, Growth factor receptor-bound protein 2; assay: Inhibitory concentration for human growth factor receptor bound protein 2
Target sequence in this assay (P62993 whole entry): as the sequence (P62993 whole entry, looked up) above

For `NC(=O)C[C@H](NC(=O)C1(NC(=O)[C@@H](CC(=O)O)Cc2ccc(CP(=O)(O)O)cc2)CCCCC1)C(=O)NCCNc1ccc([N+](=O)[O-])c2nonc12`, the k off [1] was 0.14 s⁻¹, the Kd [2] was 119 nM and the kon [3] was 1.18e+06 1/M1/S. The IC50 [4] was 167 nM.

With `NC(=O)C[C@H](NC(=O)C1(NC(=O)[C@@H](CC(=O)O)Cc2ccc(CP(=O)(O)O)cc2)CCCCC1)C(=O)NCCCc1cccc2ccccc12` the k off [1] was 0.0991 s⁻¹, the Kd [2] was 23.8 nM and the kon [3] was 4.18e+06 1/M1/S.
